{"source": "the NIST ThermoML archive (doi:10.1021/je700260f)", "details": "333.16 K, Liquid, Vibrating tube method", "note": "± gives the expanded uncertainty stated by the source.", "data": [{"smiles": "FC(C(F)(F)F)C(F)(F)F", "note": "[1,1,1,2,3,3,3-heptafluoropropane]", "values": [{"measurement": "mass density", "setting": "12443 kPa", "result": "1344.2 ± 1.5", "unit": "kg/m3"}, {"measurement": "mass density", "setting": "12466 kPa", "result": "1344.3 ± 1.5", "unit": "kg/m3"}, {"measurement": "mass density", "setting": "12886 kPa", "result": "1347.5 ± 1.5", "unit": "kg/m3"}, {"measurement": "mass density", "setting": "12914 kPa", "result": "1347.5 ± 1.5", "unit": "kg/m3"}, {"measurement": "mass density", "setting": "12942 kPa", "result": "1347.8 ± 1.5", "unit": "kg/m3"}, {"measurement": "mass density", "setting": "12966 kPa", "result": "1347.9 ± 1.5", "unit": "kg/m3"}, {"measurement": "mass density", "setting": "12994 kPa", "result": "1348.2 ± 1.5", "unit": "kg/m3"}, {"measurement": "mass density", "setting": "13023 kPa", "result": "1348.2 ± 1.5", "unit": "kg/m3"}, {"measurement": "mass density", "setting": "13053 kPa", "result": "1348.6 ± 1.5", "unit": "kg/m3"}, {"measurement": "mass density", "setting": "13082 kPa", "result": "1348.9 ± 1.5", "unit": "kg/m3"}, {"measurement": "mass density", "setting": "13115 kPa", "result": "1349.1 ± 1.5", "unit": "kg/m3"}, {"measurement": "mass density", "setting": "13140 kPa", "result": "1349.1 ± 1.5", "unit": "kg/m3"}, {"measurement": "mass density", "setting": "13164 kPa", "result": "1349.4 ± 1.5", "unit": "kg/m3"}, {"measurement": "mass density", "setting": "13196 kPa", "result": "1349.7 ± 1.5", "unit": "kg/m3"}, {"measurement": "mass density", "setting": "13220 kPa", "result": "1349.7 ± 1.5", "unit": "kg/m3"}, {"measurement": "mass density", "setting": "13244 kPa", "result": "1349.9 ± 1.5", "unit": "kg/m3"}, {"measurement": "mass density", "setting": "13272 kPa", "result": "1350.2 ± 1.5", "unit": "kg/m3"}, {"measurement": "mass density", "setting": "13304 kPa", "result": "1350.5 ± 1.5", "unit": "kg/m3"}, {"measurement": "mass density", "setting": "13324 kPa", "result": "1350.5 ± 1.5", "unit": "kg/m3"}, {"measurement": "mass density", "setting": "13344 kPa", "result": "1350.6 ± 1.5", "unit": "kg/m3"}, {"measurement": "mass density", "setting": "13368 kPa", "result": "1350.9 ± 1.5", "unit": "kg/m3"}, {"measurement": "mass density", "setting": "13394 kPa", "result": "1351.1 ± 1.5", "unit": "kg/m3"}, {"measurement": "mass density", "setting": "13432 kPa", "result": "1351.2 ± 1.5", "unit": "kg/m3"}, {"measurement": "mass density", "setting": "13461 kPa", "result": "1351.4 ± 1.5", "unit": "kg/m3"}, {"measurement": "mass density", "setting": "13494 kPa", "result": "1351.7 ± 1.5", "unit": "kg/m3"}, {"measurement": "mass density", "setting": "13518 kPa", "result": "1351.9 ± 1.5", "unit": "kg/m3"}, {"measurement": "mass density", "setting": "13633 kPa", "result": "1352.7 ± 1.5", "unit": "kg/m3"}, {"measurement": "mass density", "setting": "13666 kPa", "result": "1352.9 ± 1.5", "unit": "kg/m3"}, {"measurement": "mass density", "setting": "13690 kPa", "result": "1353 ± 1.5", "unit": "kg/m3"}, {"measurement": "mass density", "setting": "13724 kPa", "result": "1353.1 ± 1.5", "unit": "kg/m3"}, {"measurement": "mass density", "setting": "13921 kPa", "result": "1354.7 ± 1.5", "unit": "kg/m3"}, {"measurement": "mass density", "setting": "13954 kPa", "result": "1354.9 ± 1.5", "unit": "kg/m3"}, {"measurement": "mass density", "setting": "13991 kPa", "result": "1355.1 ± 1.5", "unit": "kg/m3"}, {"measurement": "mass density", "setting": "14017 kPa", "result": "1355.3 ± 1.5", "unit": "kg/m3"}, {"measurement": "mass density", "setting": "14050 kPa", "result": "1355.5 ± 1.5", "unit": "kg/m3"}, {"measurement": "mass density", "setting": "14075 kPa", "result": "1355.8 ± 1.5", "unit": "kg/m3"}, {"measurement": "mass density", "setting": "14106 kPa", "result": "1355.9 ± 1.5", "unit": "kg/m3"}, {"measurement": "mass density", "setting": "14140 kPa", "result": "1356.2 ± 1.5", "unit": "kg/m3"}, {"measurement": "mass density", "setting": "14828 kPa", "result": "1360.7 ± 1.5", "unit": "kg/m3"}, {"measurement": "mass density", "setting": "14853 kPa", "result": "1360.9 ± 1.5", "unit": "kg/m3"}, {"measurement": "mass density", "setting": "14892 kPa", "result": "1361.2 ± 1.5", "unit": "kg/m3"}, {"measurement": "mass density", "setting": "14922 kPa", "result": "1361.4 ± 1.5", "unit": "kg/m3"}, {"measurement": "mass density", "setting": "14953 kPa", "result": "1361.5 ± 1.5", "unit": "kg/m3"}, {"measurement": "mass density", "setting": "14979 kPa", "result": "1361.7 ± 1.5", "unit": "kg/m3"}, {"measurement": "mass density", "setting": "15001 kPa", "result": "1361.9 ± 1.5", "unit": "kg/m3"}, {"measurement": "mass density", "setting": "15034 kPa", "result": "1362.1 ± 1.5", "unit": "kg/m3"}, {"measurement": "mass density", "setting": "15054 kPa", "result": "1362.3 ± 1.5", "unit": "kg/m3"}, {"measurement": "mass density", "setting": "15081 kPa", "result": "1362.5 ± 1.5", "unit": "kg/m3"}, {"measurement": "mass density", "setting": "15117 kPa", "result": "1362.6 ± 1.5", "unit": "kg/m3"}, {"measurement": "mass density", "setting": "15153 kPa", "result": "1362.8 ± 1.5", "unit": "kg/m3"}, {"measurement": "mass density", "setting": "15179 kPa", "result": "1363 ± 1.5", "unit": "kg/m3"}, {"measurement": "mass density", "setting": "15260 kPa", "result": "1363.6 ± 1.5", "unit": "kg/m3"}, {"measurement": "mass density", "setting": "15320 kPa", "result": "1364 ± 1.5", "unit": "kg/m3"}, {"measurement": "mass density", "setting": "15346 kPa", "result": "1364.2 ± 1.5", "unit": "kg/m3"}, {"measurement": "mass density", "setting": "15370 kPa", "result": "1364.4 ± 1.5", "unit": "kg/m3"}, {"measurement": "mass density", "setting": "15404 kPa", "result": "1364.4 ± 1.5", "unit": "kg/m3"}, {"measurement": "mass density", "setting": "15436 kPa", "result": "1364.7 ± 1.5", "unit": "kg/m3"}, {"measurement": "mass density", "setting": "15464 kPa", "result": "1364.9 ± 1.5", "unit": "kg/m3"}, {"measurement": "mass density", "setting": "15500 kPa", "result": "1365.2 ± 1.5", "unit": "kg/m3"}, {"measurement": "mass density", "setting": "15533 kPa", "result": "1365.2 ± 1.5", "unit": "kg/m3"}, {"measurement": "mass density", "setting": "15561 kPa", "result": "1365.5 ± 1.5", "unit": "kg/m3"}, {"measurement": "mass density", "setting": "15593 kPa", "result": "1365.8 ± 1.5", "unit": "kg/m3"}, {"measurement": "mass density", "setting": "15630 kPa", "result": "1366 ± 1.5", "unit": "kg/m3"}, {"measurement": "mass density", "setting": "15658 kPa", "result": "1366.2 ± 1.5", "unit": "kg/m3"}, {"measurement": "mass density", "setting": "15689 kPa", "result": "1366.4 ± 1.5", "unit": "kg/m3"}, {"measurement": "mass density", "setting": "15953 kPa", "result": "1368 ± 1.5", "unit": "kg/m3"}, {"measurement": "mass density", "setting": "15985 kPa", "result": "1368.1 ± 1.5", "unit": "kg/m3"}, {"measurement": "mass density", "setting": "16013 kPa", "result": "1368.3 ± 1.5", "unit": "kg/m3"}, {"measurement": "mass density", "setting": "16049 kPa", "result": "1368.5 ± 1.6", "unit": "kg/m3"}, {"measurement": "mass density", "setting": "16085 kPa", "result": "1368.9 ± 1.6", "unit": "kg/m3"}, {"measurement": "mass density", "setting": "16105 kPa", "result": "1369.1 ± 1.6", "unit": "kg/m3"}, {"measurement": "mass density", "setting": "16141 kPa", "result": "1369.2 ± 1.6", "unit": "kg/m3"}, {"measurement": "mass density", "setting": "16169 kPa", "result": "1369.4 ± 1.6", "unit": "kg/m3"}, {"measurement": "mass density", "setting": "16193 kPa", "result": "1369.6 ± 1.6", "unit": "kg/m3"}, {"measurement": "mass density", "setting": "16223 kPa", "result": "1369.6 ± 1.6", "unit": "kg/m3"}, {"measurement": "mass density", "setting": "16248 kPa", "result": "1370 ± 1.6", "unit": "kg/m3"}, {"measurement": "mass density", "setting": "16281 kPa", "result": "1370.1 ± 1.6", "unit": "kg/m3"}, {"measurement": "mass density", "setting": "16314 kPa", "result": "1370.3 ± 1.6", "unit": "kg/m3"}, {"measurement": "mass density", "setting": "16339 kPa", "result": "1370.4 ± 1.6", "unit": "kg/m3"}, {"measurement": "mass density", "setting": "16363 kPa", "result": "1370.5 ± 1.6", "unit": "kg/m3"}, {"measurement": "mass density", "setting": "16388 kPa", "result": "1370.7 ± 1.6", "unit": "kg/m3"}, {"measurement": "mass density", "setting": "16416 kPa", "result": "1370.9 ± 1.6", "unit": "kg/m3"}, {"measurement": "mass density", "setting": "16540 kPa", "result": "1371.7 ± 1.6", "unit": "kg/m3"}, {"measurement": "mass density", "setting": "16572 kPa", "result": "1371.9 ± 1.6", "unit": "kg/m3"}, {"measurement": "mass density", "setting": "16600 kPa", "result": "1372 ± 1.6", "unit": "kg/m3"}, {"measurement": "mass density", "setting": "16655 kPa", "result": "1372.4 ± 1.6", "unit": "kg/m3"}, {"measurement": "mass density", "setting": "16788 kPa", "result": "1373.2 ± 1.6", "unit": "kg/m3"}, {"measurement": "mass density", "setting": "16821 kPa", "result": "1373.3 ± 1.6", "unit": "kg/m3"}, {"measurement": "mass density", "setting": "16850 kPa", "result": "1373.5 ± 1.6", "unit": "kg/m3"}, {"measurement": "mass density", "setting": "16876 kPa", "result": "1373.7 ± 1.6", "unit": "kg/m3"}, {"measurement": "mass density", "setting": "16909 kPa", "result": "1373.8 ± 1.6", "unit": "kg/m3"}, {"measurement": "mass density", "setting": "16937 kPa", "result": "1374.2 ± 1.6", "unit": "kg/m3"}, {"measurement": "mass density", "setting": "16964 kPa", "result": "1374.2 ± 1.6", "unit": "kg/m3"}, {"measurement": "mass density", "setting": "16992 kPa", "result": "1374.4 ± 1.6", "unit": "kg/m3"}, {"measurement": "mass density", "setting": "17013 kPa", "result": "1374.5 ± 1.6", "unit": "kg/m3"}, {"measurement": "mass density", "setting": "17038 kPa", "result": "1374.7 ± 1.6", "unit": "kg/m3"}, {"measurement": "mass density", "setting": "17063 kPa", "result": "1374.9 ± 1.6", "unit": "kg/m3"}, {"measurement": "mass density", "setting": "17088 kPa", "result": "1374.9 ± 1.6", "unit": "kg/m3"}, {"measurement": "mass density", "setting": "17109 kPa", "result": "1375.2 ± 1.6", "unit": "kg/m3"}, {"measurement": "mass density", "setting": "17137 kPa", "result": "1375.3 ± 1.6", "unit": "kg/m3"}, {"measurement": "mass density", "setting": "17162 kPa", "result": "1375.4 ± 1.6", "unit": "kg/m3"}, {"measurement": "mass density", "setting": "17189 kPa", "result": "1375.7 ± 1.6", "unit": "kg/m3"}, {"measurement": "mass density", "setting": "17215 kPa", "result": "1375.7 ± 1.6", "unit": "kg/m3"}]}]}
